According to patent publication US20230332232A1, “COMPOSITIONS AND METHODS FOR DIAGNOSING AND TREATING A DYSTONIA” (Duke University, priority 2020, published 2023):

Tested on: wild-type (WT) murine embryonic fibroblasts (MEFs)
Test: Untargeted LC/MS/MS proteomics of EVs from WT MEFs exposed 24 hours to drug, compared with untreated WT MEFs
Assay type: cell-based, mouse
Settings: for direction of modulated EV protein expression: WT cells
Method: Methods for isolation and purification of exosomes and extracellular vesicles (EV) were extensively reviewed. Experiments were performed to arrive at a robust and reproducible protocol. The protocol used herein is that set forth in Théry et al, 2006, which is incorporated by reference for it teaching of this protocol. This protocol involves depleting serum-derived EVs from cell culture media by overnight ultracentrifugation and exchanging media for 1% FBS EV-depleted media. Media is then collected from cells following a 24-hour conditioning period and EVs are isolated by 18-hour ultracentrifugation at 100,000 g (FIG. 1A).
EVs were isolated from media of cultured murine embryonic fibroblasts (MEFs) prepared in-house according to protocols described by Xu 2005 from DYT1 knockin mice (Tor1a^delGAG/+) (Goodchild R E, et al. (2005) Neuron. 48:923-932) and littermate wild-type (WT) controls. The cultured MEFs from the DYT1 mice were exposed for 24 hours to Ritonavir (RTV) while the MEFs from WT mice were exposed to vehicle, ISRIB, or Salubrinal (SAL). The EVs isolated from these WT cells and DYT1 were characterized by untargeted proteomics and RNA-seq to identify differentially expressed proteins and RNAs as candidate biomarkers. Experimenter and Proteomics core staff were blinded to genotype of cell cultures throughout preparation and analysis phases. EV isolation was confirmed by Western immunoblot documenting presence of the exosomal marker (TSG101) and absence of the endoplasmic reticulum (ER) marker (CANX) (FIG. 1B (Cohort 1) and FIG. 1C (Cohort 2)).
Following the bicinchoninic acid assay (BCA) analysis and Western immunoblot of a portion of samples for QC, 11.6 μg-129.2 μg of EV protein lysates in RIPA buffer were sent to the Duke Proteomics and Metabolomics Shared Resource core facility for LC/MS/MS quantitative proteomic analysis. Samples were first normalized to 20 μg and spiked with undigested casein at a total of 40 fmol/μg, 80 fmol/μg, or 160 fmol/μg, then reduced with 10 mM dithiolthreitol for 30 minute at 80° C. and alkylated with 20 mM iodoacetamide for 30 minutes at room temperature. Next, the samples were supplemented with a final concentration of 1.2% phosphoric acid and 741 μL of S-Trap (Protifi) binding buffer (90% MeOH/100 mM […]). Proteins were trapped on the S-Trap, digested using 20 ng/μL sequencing grade trypsin (Promega) for 1 hour at 47° C., and eluted using 50 mM TEAB, followed by 0.2% FA, and lastly using 50% CAN/0.2% FA. All samples were then lyophilized to dryness and resuspended in 40 μL 1% TFA/2% acetonitrile containing 12.5 fmol/μL yeast alcohol dehydrogenase (ADH_YEAST). A QC Pool was created from 3 uL of each sample. All QC Pools were run periodically throughout the acquisition period.
Quantitative LC/MS/MS was performed on 2 μL of each sample, using a nanoAcquity UPLC system (Waters Corp) coupled to a Thermo Orbitrap Fusion Lumos high resolution accurate mass tandem mass spectrometer (Thermo) via a nanoelectrospray ionization source. Briefly, the sample was first trapped on a Symmetry C18 20 mm×180 μm trapping column (5 μL/min at 99.9/0.1 v/v water/acetonitrile), after which the analytical separation was performed using a 1.8 μm Acquity HSS T3 C18 75 μm×250 mm column (Waters Corp.) with a 90 minute linear gradient of 5% to 30% acetonitrile with 0.1% formic acid at a flow rate of 400 nanoliters/minute (nL/min) with a column temperature of 55° C. Data collection on the Fusion Lumos mass spectrometer was performed in a data-dependent acquisition (DDA) mode of acquisition with a r=120,000 (@ m/z 200) full MS scan from m/z 375-1500 with a target AGC value of 2e5 ions. MS/MS scans were acquired at Rapid scan rate (Ion Trap) with an AGC target of 5e3 ions and a max injection time of 100 ms. The total cycle time for MS and MS/MS scans was 2 seconds. A 20 second dynamic exclusion was employed to increase depth of coverage. The total analysis cycle time for each sample injection was approximately 2 hours. […]

[1] = EV protein Prep, Prolyl endopeptidase
[2] = EV protein Protein transport protein Sec31A
[3] = EV protein Q8BPB5, EGF-containing fibulin-like ECM protein 1
[4] = EV protein Q8C878, NEDD8-activating enzyme E1 catalytic subunit
[5] = EV protein Q8R081, Heterogeneous nuclear ribonucleoprotein 1
[6] = EV protein Q9D1M4, Eukaryotic translation EF1 epsilon-1
[7] = EV protein Q62261, Spectrin beta chain, non-crythrocytic 1
[8] = EV protein Q89051, Integral membrane protein 2B
[9] = EV protein Regulator of nonsense transcripts 1

## O=C(COc1ccc(Cl)cc1)NC1CCC(NC(=O)COc2ccc(Cl)cc2)CC1 (stereo not drawn) [ISRIB]
EV protein P27612, Phospholipase A-2-activating protein
  ISRIBvWT Z Score: −2.39
EV protein P48678, Prelamin-
  ISRIB Direction Same as dE?: yes
  ISRIBvWT Z Score: −0.19
EV protein P61089, Ubiquitin-conjugating enzyme
  ISRIBvWT Z Score: 0.41
EV protein Pdia4 (P08003)
  ISRIBvWT Z Score: 1.37
EV protein Penk (P22005)
  ISRIBvWT Z Score: −0.11
EV protein Plaa P27612
  ISRIBvWT Z Score: −2.39
EV protein Pld3 (Q35405)
  ISRIBvWT Z Score: 1.18
[1]
  ISRIB Direction Same as dE?: yes
  ISRIBvWT Z Score: −1.11
[2]
  ISRIB Direction Same as dE?: yes
  ISRIBvWT Z Score: −1.34
EV protein Prpf8 (Q99PV0)
  ISRIB Direction Same as dE?: yes
  ISRIBvWT Z Score: −0.01
EV protein Psmd1 (Q3TXS7)
  ISRIB Direction Same as dE?: yes
  ISRIBvWT Z Score: −0.65
EV protein Pura (P42669)
  ISRIBvWT Z Score: 0.52
EV protein Q6X893, Choline transporter-like protein 1
  ISRIBvWT Z Score: 0.80
EV protein Q8BL97, Serine arginine-rich splicing factor 7
  ISRIBvWT Z Score: 0.13
[3]
  ISRIB Direction Same as dE?: yes
  ISRIBvWT Z Score: 0.07
[4]
  ISRIB Direction Same as dE?: yes
  ISRIBvWT Z Score: −1.68
EV protein Q8C878 NEDD8-activating enzyme .. subunit
  ISRIBvWT Z Score: −1.68
[5]
  ISRIB Direction Same as dE?: yes
  ISRIBvWT Z Score: −0.32
[6]
  ISRIB Direction Same as dE?: yes
  ISRIBvWT Z Score: −3.65
EV protein Q9FS30, Complement C1q tumor necrosis factor-related protein 3
  ISRIBvWT Z Score: −0.18
EV protein Q9Z1Z0, General vesicular transport factor p115
  ISRIBvWT Z Score: 2.44
EV protein Q9Z2X1 Heterogeneous nuclear ribonucleoprotein E
  ISRIBvWT Z Score: −0.18
EV protein Q78ZA7, Nucelosome assembly protein 1-like 4
  ISRIBvWT Z Score: 2.43
EV protein Q99KJ8 Dynactin subunit 2
  ISRIBvWT Z Score: 0.53
EV protein Q922B2 Aspartate--tRNA ligase
  ISRIBvWT Z Score: −1.13
EV protein Q01405 Protein transport protein .. 23A
  ISRIBvWT Z Score: −0.95
EV protein Q60751, Insulin-like growth factor 1 receptor
  ISRIBvWT Z Score: 0.75
[7]
  ISRIB Direction Same as dE?: yes
  ISRIBvWT Z Score: −0.82
[8]
  ISRIB Direction Same as dE?: yes
  ISRIBvWT Z Score: −2.13
EV protein Qars (Q8BML9)
  ISRIB Direction Same as dE?: yes
  ISRIBvWT Z Score: −2.14
EV protein Rab6a (P35279)
  ISRIBvWT Z Score: 0.44
EV protein Rbbp4 (Q60972)
  ISRIB Direction Same as dE?: yes
  ISRIBvWT Z Score: −1.73
[9]
  ISRIB Direction Same as dE?: yes
  ISRIBvWT Z Score: −1.84
EV protein Rpl22 (P67984)
  ISRIBvWT Z Score: 2.38
EV protein S100a11 (P50543)
  ISRIBvWT Z Score: 0.33
EV protein Scarb2 (Q35114)
  ISRIBvWT Z Score: 0.09
EV protein Sec23a (Q01405)
  ISRIB Direction Same as dE?: yes
  ISRIBvWT Z Score: −0.95
EV protein Shmt2 (Q9CZN7)
  ISRIB Direction Same as dE?: yes
  ISRIBvWT Z Score: −1.44
EV protein Shrnt2 Q9CZN7
  ISRIBvWT Z Score: −1.44
EV protein Spp1 (P10923)
  ISRIB Direction Same as dE?: yes
  ISRIBvWT Z Score: 2.67
EV protein Sptan1 (P16546)
  ISRIB Direction Same as dE?: yes
  ISRIBvWT Z Score: −0.40
EV protein Ssb (P32067)
  ISRIBvWT Z Score: 0.41
EV protein Ssbp1 (Q9CYR0)
  ISRIB Direction Same as dE?: yes
  ISRIBvWT Z Score: −1.49
EV protein Svep1 (A2A0A0)
  ISRIBvWT Z Score: −0.50
EV protein Tars (Q9D0R2)
  ISRIB Direction Same as dE?: yes
  ISRIBvWT Z Score: −1.16
EV protein Tra2b (P62996)
  ISRIBvWT Z Score: 0.54
EV protein Vapa (Q9WV55)
  ISRIBvWT Z Score: 3.18
RTV Therapeutic Efficacy with ISRIB Insensitivity subset, 33 proteins
  direction of modulated EV protein expression: in the opposite direction of DYT1 genotype-dependent direction
RTV Therapeutic Efficacy with ISRIB Sensitivity subset, 121 proteins
  direction of modulated EV protein expression: modulated expression in a predicted pathological direction
